Data from US10364263B2, “Cyclic phosphates and cyclic phosphoramidates for the treatment of neurologic disorders” (Retrophin, Inc., priority 2015, dated 2019).

What was measured:
[1] = Chemical stability in aqueous solution (phosphate buffered saline, NMR)
Description: (§1) To measure chemical stability in aqueous solution, the half-life (t1/2), or time needed for the concentration to decrease by half, was determined for select compounds in phosphate buffered saline solution. Compounds were dissolved in a solution containing 10 mM phosphate buffer (pH 7.5) and 5% of D2O to a final concentration of −1 mM. All spectra were obtained at 37° C. on a Bruker Avance 600 NMR spectrometer equipped with an inverse broad-band probe with z-gradients. Data were obtained every 15 min for a total time period of 4 h or longer, according to the observed stability. ^31P NMR was performed at 242.55 MHz, with gated decoupling of the protons. An observation frequency range of 14619.9 Hz and 32 K complex data points were used for acquisition. A pulse angle of 90° and a 4-sec pulse cycle were utilized. Thirty-two accumulations were obtained before Fourier transformation of the free induction decay. ^1H NMR spectra were acquired using the 1DNOESY experiment with water presaturation for better solvent suppression. An observation frequency range of 12019.23 Hz, a 10-sec pulse cycle, and 32 K complex data points were used for acquisition. Sixty-four scans were added prior to Fourier transformation. Integral data were obtained using the TopSpin software.
(§2) Stability was determined based on analysis of disappearance of the compounds as a function of incubation time. Quantification of test compounds was measured as a peak area relative to an internal standard. The elimination constant, k, was calculated by plotting mean disappearance values on a semi-logarithmic scale and fitting with a best fit linear regression. The half-life (t1/2) expressed in hours was derived using Equation 1: t1/2=ln2/(−k). Equation 1:

physchem = settings: buffer, phosphate buffered saline, 10 mM phosphate buffer pH 7.5, 37° C.
Description: as §1, §2

[2] = pH 7.5, t1/2 (h) Diastereoisomer A, 10 mM phosphate buffer pH 7.5, 37° C., Diastereoisomer A = upfield shift in the 31P NMR
[3] = pH 7.5, t1/2 (h) Diastereoisomer B, 10 mM phosphate buffer pH 7.5, 37° C., Diastereoisomer B
[4] = pH 7.5, t1/2 (h) Diastereoisomer A, Diastereoisomer A = upfield shift in the 31P NMR
[5] = pH 7.5, t1/2 (h) Diastereoisomer B, Diastereoisomer B

## COC(=O)CCNC(=O)[C@@H]1OP(=O)(OCOC(=O)C(C)(C)C)OCC1(C)C (stereo partly drawn) [Compound No. 65, (((4R)-4-((3-methoxy-3-oxopropyl)carbamoyl)-5,5-dimethyl-2-oxido-1,3,2-dioxaphosphinan-2-yl)oxy)methyl pivalate]
[1]; [2]
  half-life at 1 mM: 40.5 h
[1]; [3]
  half-life at 1 mM: 7.2 h

## COC(=O)CCNC(=O)[C@@H]1OP(=O)(N[C@@H](C)C(=O)OC)OCC1(C)C (stereo partly drawn) [compound 5, methyl 3-((4R)-2-(((S)-1-methoxy-1-oxopropan-2-yl)amino)-5,5-dimethyl-2-oxido-1,3,2-dioxaphosphinane-4-carboxamido)propanoate]
physchem; [4]
  half-life: 40 h
physchem; [5]
  half-life: 40 h

## COC(=O)CCNC(=O)[C@@H]1OP(=O)(N[C@@H](C)C(=O)OCc2ccccc2)OCC1(C)C (stereo partly drawn) [Compound No. 11, Benzyl ((4R)-4-((3-methoxy-3-oxopropyl)carbamoyl)-5,5-dimethyl-2-oxido-1,3,2-dioxaphosphinan-2-yl)-L-alaninate]
[1]; pH 7.5, half-lives, phosphate buffered saline solution, both diastereoisomers
  half-life at 1 mM: > 60 h
[1]; [2]
  half-life at 1 mM: > 100 h
[1]; [3]
  half-life at 1 mM: > 60 h

## COC(=O)CCNC(=O)[C@@H]1OP(=O)(N[C@H](C)C(=O)OC)OCC1(C)C (stereo partly drawn) [compound 16, methyl 3-((4R)-2-(((R)-1-methoxy-1-oxopropan-2-yl)amino)-5,5-dimethyl-2-oxido-1,3,2-dioxaphosphinane-4-carboxamido)propanoate]
physchem; [4]
  half-life: > 80 h
physchem; [5]
  half-life: > 80 h

## COC(=O)CCNC(=O)[C@@H]1OP(=O)(N[C@@H](C)C(=O)OCc2cc(C)cc(C)c2)OCC1(C)C (stereo partly drawn) [compound 3, (2S)-3,5-dimethylbenzyl 2-(((4R)-4-((3-methoxy-3-oxopropyl)carbamoyl)-5,5-dimethyl-2-oxido-1,3,2-dioxaphosphinan-2-yl)amino)propanoate]
[1]; [2]
  half-life at 1 mM: > 80 h
[1]; [3]
  half-life at 1 mM: > 80 h

## COC(=O)CCNC(=O)[C@@H]1OP(=O)(NCCN2CCCC2)OCC1(C)C (stereo partly drawn) [compound 109, methyl 3-((4R)-5,5-dimethyl-2-oxido-2-((2-(pyrrolidin-1-yl)ethyl)amino)-1,3,2-dioxaphosphinane-4-carboxamido)propanoate]
physchem; [4]
  half-life: 48 h
physchem; [5]
  half-life: 15.4 h

## CC1(C)COP(=O)(O)O[C@H]1C(=O)NCCC(=O)O [compound 108, 3-((4R)-2-hydroxy-5,5-dimethyl-2-oxido-1,3,2-dioxaphosphinane-4-carboxamido)propanoic acid]
[1]; pH 7.5, t1/2 (h), pH 7.5, 37° C., compound not chiral at phosphorous, one value spanning both columns
  half-life at 1 mM: > 100 h

## COC(=O)[C@H](C)NP1(=O)OCC(C)(C)[C@H](C(=O)NCCC(=O)OCc2ccncc2)O1 (stereo partly drawn) [compound 20, (2S)-methyl 2-(((4R)-5,5-dimethyl-2-oxido-4-((3-oxo-3-(pyridin-4-ylmethoxy)propyl)carbamoyl)-1,3,2-dioxaphosphinan-2-yl)amino)propanoate]
[1]; [2]
  half-life at 1 mM: > 80 h
[1]; [3]
  half-life at 1 mM: > 80 h

## COC(=O)CCNC(=O)[C@@H]1OP(=O)(OCOC(=O)c2ccccc2)OCC1(C)C (stereo partly drawn) [Compound No. 64, (((4R)-4-((3-methoxy-3-oxopropyl)carbamoyl)-5,5-dimethyl-2-oxido-1,3,2-dioxaphosphinan-2-yl)oxy)methyl benzoate]
[1]; [2]
  half-life at 1 mM: 87 h
[1]; [3]
  half-life at 1 mM: 13 h
